“Also recorded” adds a separate entry of the source. Like-named read-outs stand apart in the source and are kept apart here.
What was measured:
[1] = test system: Aedes aegypti mosquitoes, insecticide-susceptible Orlando strain; type: in vivo; conditions: for 1 h % Repellency, 100 μg/cm^2: screened at 100 μg/cm^2, strain not given; for 1h % repellency: Screened at μg/cm^2; for 1 h Repellency EC50, μg/cm^2: (OR); for knockdown in 1 hr repellency test (XXkd = number of insects incapacitated out of 16 females): 100 μg/cm^2
Description: The tubes as shown were held horizontally on the bench.
For assessing behavioral repellency (FIG. 1), Aedes aegypti mosquitoes were used from the insecticide-susceptible Orlando strain and the pyrethroid-resistant Puerto Rico strain. Sixteen female mosquitoes were transferred to a glass tube (12.5 cm long, 2.5 cm outer diameter) with the ends covered with netting. Each compound was dissolved in 1 mL of acetone and serial dilutions ranging from 30-0.01 μg/ml were made. Circular filter papers (5 cm^2) were saturated with 50 μL of each concentration and allowed 10 min for solvent evaporation. The filter papers were then placed in clear conical polypropylene caps and fixed to the end of the glass tubes. The netting prevented mosquito contact with the filter paper. The tubes were then aligned with a mark denoting the midline and the proportion of mosquitoes on the chemically treated side was scored for up to 60 min. At the end of the test, the tube was placed in a cage and the ability of the mosquitoes to fly out of the tube was assessed for 30 min. […] This post-test evaluated whether any non-responding mosquitoes (not repelled) resulted from intoxication or disorientation from the test chemical. For assessment of lethality, insects were held for 24 hr under constant exposure in glass tubes having treated filter papers.
Compounds were first screened at 100 μg/cm^2 for repellency and 24 h mortality.

[2] = test system: Aedes aegypti mosquitoes, insecticide-susceptible Orlando strain; conditions: for 24h % mortality: Screened at μg/cm^2
[3] = test system: Aedes aegypti strain Orlando (sensitive); assay: Topical toxicity (24 hour mortality), Ae. aegypti Orlando; type: in vivo; conditions: topical application, 24 h mortality, female adults, susceptible Orlando strain
Description: (§1) The Aedes aegypti strains Orlando (sensitive) as well as the Puerto Rico (PR, resistant to permethrin) were used. The Anopheles gambiae (G3 sensitive strain, as well as Akron kdr (Akdr) strain, resistant to pyrethroids were also assessed. The larvae were provided by the USDA, Gainesville Fl, and raised in a pan with tap water maintained at 28° C. Larvae were fed a ground liver and yeast mixture, and pupae were placed in emergence cages. Adults were held at 28° C. and provided with cotton balls soaked in 10% sugar water for rearing and for all bioassays.
(§2) Female adults from 3 to 6 days were used for the experiments. The drug was dissolved in ethanol and then applied with a micro-applicator on the thorax, between the legs: 200 nL of drug per female mosquito, with different concentrations of the drug; 10 mosquitos were treated together per concentration per replicate, and put together in a small container with free access to sweet water. Mortality, i.e. no visible movement, was assessed 24 hours after treatment. Every compound was assessed on at least 3 different cohorts of mosquitoes, and the LD50 values and slopes were determined with Probit analysis, corrected with Abbott's formula.

[4] = test system: Anopheles gambiae G3 sensitive strain; assay: Topical toxicity (24 hour mortality), An. gambiae G3; type: in vivo; conditions: topical application, 24 h mortality, female adults, susceptible strain G3
Description: as §1, §2

[5] = test system: Anopheles gambiae Akron kdr (Akdr) strain, resistant to pyrethroids; assay: Topical toxicity (24 hour mortality), An. gambiae Akdr; type: in vivo; conditions: for An. gambiae AKDR LD50: topical application, 24 h mortality, female adults, pyrethroid-resistant Akdr strain; for An. gambiae RR (resistance ratio): 24 h LD50 resistant strain (AKDR)/24 h LD50 susceptible strain (G3)
Description: as §1, §2

[6] = screened at 100 μg/cm^2, 24 h, strain not given

| SMILES | 1 h % Repellency, 100 μg/cm^2 [1] [%] | 24 h % Mortality, 100 μg/cm^2 [2, 6] [%] | Ae. aegypti OR LD50 [3] [ng/mg] | An. gambiae G3 LD50 [4] [ng/mg] | An. gambiae AKDR LD50 [5] [ng/mg] | further results |
| --- | --- | --- | --- | --- | --- | --- |
| O/N=C(\Nc1cc(Cl)nc(C(F)(F)F)c1)C(F)(F)C(F)(F)C(F)(F)F [GMR105] | 24 | 21 | – | – | – | – |
| CCOC(=O)Nc1ccccc1C(F)(F)F [GMR020] | 16 | 9 | – | – | – | – |
| O=C(Nc1cc(F)cc(F)c1)C(F)(F)C(F)(F)F [GMR188] | – | 81 | – | – | – | 24 h LC50, μg/cm^2 ([2]; 24 h, LC50 (OR)): 4.9 μg/cm^2 |
| O=C(Nc1ccccc1OC(F)(F)F)C(F)(F)C(F)(F)C(F)(F)F [GMR129] | 34 | – | >6000 | >1000 | ~1000 | – |
| O=C(Nc1cc(F)c(F)c(F)c1)C(F)(F)C(F)(F)OC(F)(F)F [compound 51] | – | – | – | – | – | 1h EC50 (μg/cm^2) ([1]; Table 3A): 3.09 μg/cm^2; 1h % repellency ([1]; Table 3A): 100%; 24 h LC50, μg/cm^2 ([2]; Table 3A): 14.94 μg/cm^2; 24h % mortality ([2]; Table 3A): 100% |
| O=C(Nc1cc(F)nc(F)c1)C(F)(F)C(F)(F)F [GMR045] | – | – | 302 | >100 | >100 | – |
| CCC(=O)Nc1c(Cl)cncc1Cl [GMR131] | −4 | 6 | – | – | – | – |
| O=C(CCl)Nc1cccc(C(F)(F)F)c1 [MTFI-2-2A] | 50 | 3 | – | – | – | – |
| O=C(Nc1c(Cl)c(Cl)nc(Cl)c1Cl)C(F)(F)C(F)(F)C(F)(F)F [GMR074] | – | – | 29 | 11.00 | 8.6 | An. gambiae RR (resistance ratio) [5]: 0.8 |
| O=C(CCC1CCCCC1)Nc1cc(C(F)(F)F)cc(C(F)(F)F)c1 [MTFI-3-1D] | 6 | 7 | – | – | – | – |
| Cc1cc(NC(=O)C(F)(F)F)cc(C)n1 [GMR048] | – | – | >1500 | >100 | >100 | – |
| O=C(Nc1ccc(F)cc1)C(F)(F)C(F)(F)F [GMR189] | 42 | 94 | – | – | – | 1 h Repellency EC50, μg/cm^2 [1]: 4.5 μg/cm^2; 24 h LC50, μg/cm^2 ([2]; 24 h, LC50 (OR)): 35.3 μg/cm^2 |
| CCC(=O)Nc1cc(F)c(F)c(F)c1 [GMR143] | 88 | 53 | – | – | – | 1 h Repellency EC50, μg/cm^2 [1]: 23 μg/cm^2; 24 h LC50, μg/cm^2 ([2]; 24 h, LC50 (OR)): 95 μg/cm^2 |
| O=C(Nc1cc(F)c(F)c(F)c1F)C(F)(F)F [MTFI-5-4B] | 82 | 0 | – | – | – | – |
| C=CC(=O)Nc1ccccc1N [GMR022] | −8 | 16 | – | – | – | – |
| CC(C)(C)c1cccc(NC(=O)CCl)c1 [compound 1] | – | – | – | – | – | 1h % repellency ([1]; Table 3B): 6%; 24h % mortality ([2]; Table 3B): 0% |
| O=C(Nc1cc(Br)nc(Br)c1)C(F)(F)C(F)(F)C(F)(F)F [GMR042] | – | – | 24 | 11.4 | 4.7 | An. gambiae RR (resistance ratio) [5]: 0.4 |
| CC(C)(C)c1cccc(NC(=O)CCl)c1 [MTFI-5-7A] | 6 | 0 | – | – | – | – |
| CC(C)(C)OC(=O)N(C(=O)C(F)(F)C(F)(F)C(F)(F)F)c1cc(Cl)nc(Cl)c1 [GMR087] | – | – | 54.6 | 23.00 | 20.50 | An. gambiae RR (resistance ratio) [5]: 0.9 |
| CCCCCCCCCC(=O)Nc1ccccc1OC(F)(F)F [GMR184] | −8 | 2 | – | – | – | – |
| O=C(Nc1cc(C(F)(F)F)cc(C(F)(F)F)c1)C(F)(F)F [MTFI-3-1G] | – | – | – | – | – | knockdown in 1 hr repellency test (XXkd = number of insects incapacitated out of 16 females) [1]: 3; 24 h % Mortality, 100 μg/cm^2 ([2]; in vivo): 100%; 24 h LC50, μg/cm^2 ([2]; in vivo): 16 μg/cm^2 |

| SMILES | 1 h % Repellency, 100 μg/cm^2 [1] [%] | 24 h % Mortality, 100 μg/cm^2 [2, 6] [%] | Ae. aegypti OR LD50 [3] [ng/mg] | An. gambiae G3 LD50 [4] [ng/mg] | An. gambiae AKDR LD50 [5] [ng/mg] | further results |
| --- | --- | --- | --- | --- | --- | --- |
| CC(C)CC(=O)Nc1cc(F)c(F)c(F)c1 [GMR141] | 16 | 19 | – | – | – | – |
| O=C(Nc1cc(F)nc(F)c1)C(F)(F)F [GMR044] | – | – | 1996 | >100 | >100 | – |
| COCc1c(F)c(F)c(COC(=O)[C@@H]2[C@@H](C=C(Cl)Cl)C2(C)C)c(F)c1F [GMR146] | – | – | – | – | – | knockdown in 1 hr repellency test (XXkd = number of insects incapacitated out of 16 females) [1]: 15; 24 h % Mortality, 100 μg/cm^2 ([2]; in vivo): 100%; 24 h LC50, μg/cm^2 ([2]; in vivo): 1 μg/cm^2 |
| CCCCC(=O)Nc1cccc(OC(F)(F)F)c1 [MTFI-5-9A] | 50 | 0 | – | – | – | – |
| O=C(Nc1cc(Cl)nc(C(F)(F)F)c1)C(F)F [GMR034] | – | – | 1454 | 20.8 | 23.8 | An. gambiae RR (resistance ratio) [5]: 1.1 |
| O=C(Nc1cc(F)nc(F)c1)C(F)F [GMR043] | – | – | 2480 | >100 | >100 | – |
| O=C(Nc1cc(F)nc(F)c1)C(F)(F)C(F)(F)C(F)(F)F [GMR046] | – | – | 300 | >100 | >100 | – |
| O=C(Nc1cc(F)nc(F)c1)C(F)(F)C(F)(F)C(F)(F)C(F)(F)C(F)(F)F [GMR072] | – | – | 114 | 11.00 | 17 | An. gambiae RR (resistance ratio) [5]: 1.5 |
| O=C(CC1CC1)Nc1ccccc1C(F)(F)F [MTFI-5-5C] | 82 | 0 | – | – | – | 1 h Repellency EC50, μg/cm^2 [1]: 34 μg/cm^2 |
| Cc1cc(NC(=O)C(F)(F)C(F)(F)F)cc(C)n1 [GMR049] | – | – | >3000 | >100 | >100 | – |
| O=C(Nc1cc(F)c(F)c(F)c1)C(F)(F)C(F)(F)F [GMR135] | 74 | 100 | 1792 | – | – | 1 h Repellency EC50, μg/cm^2 [1]: 22.1 μg/cm^2; 24 h LC50, μg/cm^2 ([2]; 24 h, LC50 (OR)): 21.6 μg/cm^2 |
| CCCC(=O)Nc1cc(F)c(F)c(F)c1 [GMR144] | 62 | 38 | – | – | – | – |
| O=C(Nc1cc(Cl)nc(C(F)(F)F)c1)C(F)(F)C(F)(F)C(F)(F)F [GMR037, N-(2-chloro-6-(trifluoromethyl)pyridin-4-yl)-2,2,3,3,4,4,4-heptafluorobutanamide] | – | – | 17 | 6.5 | 5.3 | An. gambiae RR (resistance ratio) [5]: 0.8 |
| O=C(Nc1cc(Br)nc(Br)c1)C(F)(F)C(F)(F)F [GMR041] | – | – | 50 | ~100 | ~100 | – |
| Cc1cc(NC(=O)C(F)(F)C(F)(F)C(F)(F)F)cc(C)n1 [GMR050] | – | – | >3000 | >100 | >100 | – |
| O=C(Nc1cc(Cl)nc(C(F)(F)F)c1)C(F)(F)C(F)(F)F [GMR036] | – | – | 25 | 13.5 | 10.0 | An. gambiae RR (resistance ratio) [5]: 0.7 |
| N#CC(F)(F)C(=O)Nc1cc(Cl)nc(Cl)c1 [GMR101] | – | – | 1841 | >100 | >100 | – |
| O=C(CCCC(F)(F)F)Nc1cc(Cl)nc(Cl)c1 [GMR052] | – | – | 2743 | >100 | >100 | – |
| C=CCCCC(=O)Nc1cc(C(F)(F)F)cc(C(F)(F)F)c1 [MTFI-3-1C] | 38 | 0 | – | – | – | – |
| CC(C)(F)C(=O)Nc1ccccc1C(F)(F)F [MTFI-5-5A] | 82 | 3 | – | – | – | vapor repellency / mortality, statement in words (Example 8) ([1]; structure-activity analysis of Table 2): reduced repellency; also recorded: little to no activity |
| O=C(CCC1CCCCC1)Nc1ccccc1C(F)(F)F [MTFI-3-2F] | 18 | 25 | – | – | – | – |
